Source: article PMC5362899, “Structural insights into the nucleotide base specificity of P2X receptors” (Scientific Reports, 2017)
Substitutions are numbered along the chain they refer to.

Tests used:
Type in all cases: cell-based
[1] = molecular target: T1, zebrafish P2X4 (zfP2X4) WT (Danio rerio, UniProt F8W463); assay: Two Electrode Voltage Clamp recording of Xenopus oocytes expressing zebrafish P2X4 WT; details: 1 mM nucleotide for 10 sec after prior application of 100 μM ATP; holding potential −70 mV; n = 4
T1 construct: The cRNAs encoding zebrafish P2X4 (NP_705939; WT); expressed in transfected cells; host or cells: Xenopus laevis oocytes injected with cRNA from pGEMHE
T1 sequence (F8W463 1-389): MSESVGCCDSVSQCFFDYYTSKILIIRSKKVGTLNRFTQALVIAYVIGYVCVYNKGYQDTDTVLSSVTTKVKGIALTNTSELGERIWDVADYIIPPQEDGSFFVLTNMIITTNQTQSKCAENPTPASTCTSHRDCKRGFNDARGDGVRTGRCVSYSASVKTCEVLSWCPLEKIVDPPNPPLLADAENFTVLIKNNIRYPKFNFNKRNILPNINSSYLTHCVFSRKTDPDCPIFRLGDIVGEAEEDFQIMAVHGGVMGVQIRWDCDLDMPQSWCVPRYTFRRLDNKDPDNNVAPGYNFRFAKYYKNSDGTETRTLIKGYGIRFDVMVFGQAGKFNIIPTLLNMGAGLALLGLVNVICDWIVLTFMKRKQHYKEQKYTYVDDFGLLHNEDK
From the text: To assess the nucleotide base specificity of zebrafish P2X4 (zfP2X4), we first performed Two Electrode Voltage Clamp (TEVC) recording of Xenopus oocytes. As shown previously, the initial “priming” application with a low concentration of ATP increases P2X receptors sensitivity to second or more applications of ligands, which is useful for evaluating the affinity of ligands. Therefore, we expressed zfP2X4 in oocytes and recorded the zfP2X4-associated currents evoked by the application of high concentrations (1 mM) of nucleoside triphosphates (ATP, CTP, GTP and UTP), following the prior application of 100 μM ATP.
Figure 1 Current responses of zebrafish P2X4 evoked by nucleoside triphosphates. (A–D) Representative currents of zebrafish P2X4 WT, evoked first by 100 μM ATP and then by (A) 1 mM ATP, (B) 1 mM CTP, (C) 1 mM GTP and (D) 1 mM UTP. Each nucleotide was applied for 10 sec. The holding potential was −70 mV.
(§1) The cRNAs encoding zebrafish P2X4 (NP_705939; WT) and rat P2X4 (NP_113782.1; WT and mutants) were transcribed from pGEMHE plasmids, using a mMessage mMachine® T7 ULTRA kit (Ambion, Huntingdon, Cambridgeshire, UK). Xenopus laevis oocytes were prepared, and RNA (100 ng for zebrafish P2X4, and 20 ng for rat P2X4) was injected into the oocytes. The oocytes were incubated at 18 °C in Barth’s solution, containing 88 mM NaCl, 1 mM KCl, 2.4 mM NaHCO3, 10 mM HEPES, 0.33 mM Ca(NO3)2, 0.41 mM CaCl2, and 0.82 mM MgSO4, pH 7.4, supplemented with 50 μg/ml gentamicin, and were used for recording after 2–3 days. Recording solutions contained 100 mM NaCl, 5 mM HEPES, 2 mM MgCl2, pH 7.3, and nucleoside triphosphates (ATP, CTP, GTP, and UTP), which were freshly prepared each day. Oocytes were held at −70 mV with a bath-clamp amplifier (OC-725C, Warner Co., USA), and macroscopic currents were recorded and analyzed using the pClamp 10 software (Molecular Devices, USA)[33][34]. We measured n = 4 for zebrafish P2X4 data and n = 7–9 for rat P2X4 data.

[2] = molecular target: T2, rat P2X4 rH140A mutant (Rattus norvegicus, UniProt P51577, H140A); assay: Two-Electrode Voltage Clamp recording, rat P2X4 H140A mutant in Xenopus oocytes; details: for fold reduced affinity as compared with rWT: rH140A mutant vs rWT, from EC50; for EC50 / nucleotide-evoked currents: rH140A mutant; for EC50: oocytes held at −70 mV, n = 7-8, read-out: EC50 (evoked current, dose-response); for nucleotide-evoked currents: 3 mM GTP, 3 mM UTP (Fig. S4)
T2 construct: rat P2X4 (NP_113782.1; WT and mutants) were transcribed from pGEMHE plasmids; expressed in transfected cells; host or cells: Xenopus laevis oocytes injected with cRNA from pGEMHE
T2 sequence (P51577 1-388 H140A): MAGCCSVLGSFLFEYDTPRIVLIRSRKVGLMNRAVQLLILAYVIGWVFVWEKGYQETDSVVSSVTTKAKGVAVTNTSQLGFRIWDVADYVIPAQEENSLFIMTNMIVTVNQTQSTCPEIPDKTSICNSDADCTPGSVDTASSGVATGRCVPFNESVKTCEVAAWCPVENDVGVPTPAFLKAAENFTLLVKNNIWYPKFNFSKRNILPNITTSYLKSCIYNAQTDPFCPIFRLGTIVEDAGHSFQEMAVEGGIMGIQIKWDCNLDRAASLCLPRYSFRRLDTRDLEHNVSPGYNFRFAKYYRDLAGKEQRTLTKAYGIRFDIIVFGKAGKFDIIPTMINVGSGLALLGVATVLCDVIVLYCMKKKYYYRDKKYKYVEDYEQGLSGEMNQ
Description: (§2) Figure 4 Current responses of ^rWT, ^rT186S, ^rH140A and ^rH140R evoked by ATP and CTP. (A,B) Representative currents of ^rWT evoked by ATP (1–300 μM) (A) and CTP (10–10,000 μM) (B). (C,D) Representative currents of the ^rT186S mutant evoked by ATP (1–300 μM) (C) and CTP (10–10,000 μM) (D). (E,F) Representative currents of the ^rH140A mutant evoked by ATP (1–300 μM) (E) and CTP (10–10,000 μM) (F). (G,H) Representative currents of the ^rH140R mutant evoked by ATP (1–300 μM) (G) and CTP (10–10,000 μM) (H). (I–K) Concentration-response curves evoked by ATP and CTP in the ^rWT and the ^rT186S mutant (I), in the ^rWT and the ^rH140A mutant (J) and in the ^rWT and the ^rH140R mutant (K). Symbols are defined in the figure, and bars depict means ± SEM (n = 7–9).
(§3) Next we assessed the functional role of R143 in zfP2X4, as its side chain forms a hydrogen bond with the cytosine ring in the CTP-bound structure (Fig. 3A,B). This arginine residue is substituted with a similar basic residue, histidine (^rH140), in rat P2X4 (Fig. 3E).
as §1

[3] = molecular target: T3, rat P2X4 rH140R mutant (Rattus norvegicus, UniProt P51577, H140R); assay: Two-Electrode Voltage Clamp recording, rat P2X4 H140R mutant in Xenopus oocytes; details: for fold reduced affinity as compared with rWT: rH140R mutant vs rWT, from EC50; for EC50 / nucleotide-evoked currents: rH140R mutant; for EC50: oocytes held at −70 mV, n = 9-10, read-out: EC50 (evoked current, dose-response); for nucleotide-evoked currents: 3 mM GTP, 3 mM UTP (Fig. S4)
T3 construct: rat P2X4 (NP_113782.1; WT and mutants) were transcribed from pGEMHE plasmids; expressed in transfected cells; host or cells: Xenopus laevis oocytes injected with cRNA from pGEMHE
T3 sequence (P51577 1-388 H140R): T2 sequence (P51577 1-388 H140A) with A140R
Description: as §2, §3, §1

Structure (SMILES)	zfP2X4-associated currents evoked by nucleoside triphosphate [1]	fold reduced affinity as compared with rWT [2]	EC50 [2] [µM]	fold reduced affinity as compared with rWT [3]	EC50 [3] [µM]	nucleotide-evoked currents [2]	nucleotide-evoked currents [3]
Nc1ncnc2c1ncn2[C@@H]1O[C@H](COP(=O)(O)OP(=O)(O)OP(=O)(O)O)[C@@H](O)[C@H]1O [ATP, Adenosine 5-triphosphate]	detected specific ATP- and CTP-evoked currents	about 2.5 fold	42.8 ± 6.3	about 2 fold	39.4 ± 5		
Nc1ccn([C@@H]2O[C@H](COP(=O)(O)OP(=O)(O)OP(=O)(O)O)[C@@H](O)[C@H]2O)c(=O)n1 [CTP]	detected specific ATP- and CTP-evoked currents	~14 fold	7990	about 2 fold	1100 ± 140		
Nc1nc2c(ncn2[C@@H]2O[C@H](COP(=O)(O)OP(=O)(O)OP(=O)(O)O)[C@@H](O)[C@H]2O)c(=O)[nH]1 [GTP]	not GTP- and UTP-evoked currents					no GTP- and UTP-evoked currents were detected	no GTP- and UTP-evoked currents were detected
O=c1ccn([C@@H]2O[C@H](COP(=O)(O)OP(=O)(O)OP(=O)(O)O)[C@@H](O)[C@H]2O)c(=O)[nH]1 [UTP]	not GTP- and UTP-evoked currents					no GTP- and UTP-evoked currents were detected	no GTP- and UTP-evoked currents were detected
